Where a chain is given by its changes, count along the chain named.
Key:
[1] = biological target: T1, human α1A-AR F308A variant (Homo sapiens, UniProt P35348, F308A); assay: Saturation binding of ^125I-HEAT
T1 construct: expressed in transfected cells; host or cells: COS-7 (transient, calcium phosphate), membranes
T1 sequence (P35348 1-466 F308A): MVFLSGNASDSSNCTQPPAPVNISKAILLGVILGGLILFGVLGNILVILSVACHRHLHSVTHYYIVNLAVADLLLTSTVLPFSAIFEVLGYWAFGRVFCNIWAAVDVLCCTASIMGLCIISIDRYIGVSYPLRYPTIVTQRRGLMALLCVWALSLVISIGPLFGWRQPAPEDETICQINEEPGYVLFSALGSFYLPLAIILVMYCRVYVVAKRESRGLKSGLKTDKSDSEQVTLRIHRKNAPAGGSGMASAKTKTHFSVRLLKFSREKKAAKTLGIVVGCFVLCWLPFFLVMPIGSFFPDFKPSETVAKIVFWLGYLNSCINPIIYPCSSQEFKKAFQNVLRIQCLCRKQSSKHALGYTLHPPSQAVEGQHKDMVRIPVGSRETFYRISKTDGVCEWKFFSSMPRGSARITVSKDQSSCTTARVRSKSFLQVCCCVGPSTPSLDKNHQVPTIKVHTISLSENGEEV
Description: (§1) α1A-AR cDNA inserted in the prK5 vector was kindly provided by Michael Brownstein (Craig Venter Institute, Rockville, MD). Point mutations were introduced into the α1A-AR gene by sense and antisense primers (Sigma-Aldrich, St Quentin-Fallavier, France) containing the desired changes, using the QuikChange Site-Directed Mutagenesis kit. The incorporation of each mutation was verified by DNA sequencing.
(§2) CHO cells stably expressing α1-ARs were kindly provided by Dr. Hervé Paris (INSERM U858, Toulouse, France) and were grown in a 50∶50 Dulbecco's Modified Eagle's Medium (DMEM)/Ham's F12 medium supplemented with 10% (v/v) foetal bovine serum (FBS), glutamine (2 mM), penicillin (100 units/ml) and streptomycin (100 µg/ml) at 37°C with 5% CO2. COS-7 cells were grown at 37°C under 5% CO2 in Dulbecco's modified Eagle's medium containing 10% fetal calf serum, 1% penicillin and 1% glutamine (Sigma-Aldrich, St Quentin-Fallavier, France). At 80% confluence, the cells were transfected using a calcium phosphate precipitation method for transient expression of the genetic construct. After 48 h incubation at 37°C, cells were harvested and the membranes were prepared as follow. Cells were washed with ice-cold phosphate buffer and centrifuged at 1700 g for 10 min (4°C). The pellet was suspended in ice-cold buffer (1 mM EDTA, 25 mM sodium phosphate, and 5 mM MgCl2, pH 7.4) and homogenized using an Potter-Elvehjem homogenizer (Fisher Scientific Labosi, Elancourt, France). The homogenate was centrifuged at 1700 g for 15 min (4°C). The sediment was resuspended in buffer, homogenized, and centrifuged at 1700 g for 15 min (4°C). The combined supernatants were centrifuged at 35,000 g for 30 min (4°C), and the pellet was suspended in the same buffer (0.1 ml/dish). […] Cells were grown in a 50∶50 Dulbecco's Modified Eagle's Medium (DMEM)/Ham's F12 medium supplemented with 10% (v/v) foetal bovine serum (FBS), glutamine (2 mM), penicillin (100 units/ml) and streptomycin (100 µg/ml) at 37°C with 5% CO2. Media was changed every 2–3 days and cells were passaged when confluent with 0.05% trypsin and 0.02% EDTA.
(§3) Binding experiments were performed in a 100 µL reaction mix at room temperature in buffer composed of 50 mM Tris-HCl, pH 7.4, 10 mM MgCl2, 1 g/L BSA. Reactions were stopped by filtration through 96 GF/C filter plates pre-incubated with 0.5% polyethylenimine.
(§4) Binding data were analyzed by nonlinear regression using the KaleidaGraph 4.0 software (Synergy software, Reading, PA). pKD values and Bmax (number of binding sites) were determined by applying a nonlinear regression to data obtained with saturation binding assays. The nonlinear regression used was BS = (Bmax*A)/KD+A, where BS is the specific binding, Bmax the number of binding sites, A the concentration of radioligand, and KD the dissociation constant of the radioligand. Data resulting from competition binding assays were analyzed using the Hill equation for IC50 and curve slope estimations. […] The linear curves were analyzed with IC50 = Ki+(L/KD)*Ki. Dissociation kinetics were analyzed using a simple equation of exponential decay BS * exp (-Koff*t), where BS is the specific binding at time zero and Koff is the dissociation rate constant. Results are expressed as mean ± s.e. mean from n independent experiments. One-way Anova test was used to compare values. A p<0.05 was accepted for statistical significance.

[2] = biological target: T2, human α1A-AR M292A variant (Homo sapiens, UniProt P35348, M292A); assay: Saturation binding of ^125I-HEAT
T2 construct: expressed in transfected cells; host or cells: COS-7 (transient, calcium phosphate), membranes
T2 sequence (P35348 1-466 M292A): T1 sequence (P35348 1-466 F308A) with M292A, A308F
Description: as §1, §2, §3, §4

α1A-AR = biological target: T3, α1A-AR (Homo sapiens, UniProt P35348); format: binding; parameters: expressed in transfected cells; host or cells: COS-7, transient (calcium phosphate); settings: ^125I-HEAT 0.4 nM, HEAT 5 µM alone
T3 sequence (P35348 1-466): T1 sequence (P35348 1-466 F308A) with A308F
Protocol: as §3, §4

With `O=C1c2ccccc2CCC1CNCCc1ccc(O)c([125I])c1` (centres unmarked) [125I-HEAT] the “^125I-HEAT Ratio (loss of affinity relative to WT)” value ([1]; F308A) was 2.4, the “^125I-HEAT pKd” value ([1]; F308A (7.35), saturation binding, n = 3–6) was 9.66±0.11 and the “^125I-HEAT Ratio (loss of affinity relative to WT)” value ([2]; M292A) was 2.2. The “^125I-HEAT pKd” value ([2]; M292A (6.55), saturation binding, n = 3–6) was 9.69±0.09 and the “^125I-HEAT dissociation rate (Koff)” value (α1A-AR) was 0.00103 s⁻¹.

Source: article PMC3723878 (PLoS ONE, 2013)
